# Measured values published in paper PMC5400565, “Real-time near-infrared fluorescence imaging using cRGD-ZW800-1 for intraoperative visualization of multiple cancer types” (Oncotarget, 2017).
# Assays:
# Vasopressin V1a = target: T1, Vasopressin V1a (Homo sapiens, UniProt P37288); test: Off-target screening (Eurofins Cerep), V1a; assay type: binding
# T1 construct: Eurofins Cerep SA (contract screening)
# Adrenergic β1 = target: T2, Adrenergic β1 (Homo sapiens, UniProt P08588); test: Off-target screening (Eurofins Cerep), β1; assay type: binding
# T2 construct: Eurofins Cerep SA (contract screening)
# T2 sequence (P08588 whole entry): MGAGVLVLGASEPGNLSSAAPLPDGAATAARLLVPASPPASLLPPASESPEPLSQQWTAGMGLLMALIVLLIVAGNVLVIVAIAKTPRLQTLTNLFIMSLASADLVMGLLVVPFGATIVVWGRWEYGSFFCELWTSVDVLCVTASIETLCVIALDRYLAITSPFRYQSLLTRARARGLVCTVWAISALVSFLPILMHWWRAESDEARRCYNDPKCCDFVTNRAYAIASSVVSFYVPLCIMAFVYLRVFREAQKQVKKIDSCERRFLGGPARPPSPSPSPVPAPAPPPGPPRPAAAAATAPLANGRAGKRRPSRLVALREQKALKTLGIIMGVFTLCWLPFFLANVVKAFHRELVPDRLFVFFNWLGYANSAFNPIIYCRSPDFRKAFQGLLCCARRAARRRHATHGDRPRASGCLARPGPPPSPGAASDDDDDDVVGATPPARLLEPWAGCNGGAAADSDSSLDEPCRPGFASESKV
# Glutamate channels NMDA = Glutamate channels NMDA (Rattus norvegicus, UniProt Q00959); test: Off-target screening (Eurofins Cerep), NMDA; assay type: binding
# Sequence of Glutamate channels NMDA (Q00959 23-1464, other chains not shown): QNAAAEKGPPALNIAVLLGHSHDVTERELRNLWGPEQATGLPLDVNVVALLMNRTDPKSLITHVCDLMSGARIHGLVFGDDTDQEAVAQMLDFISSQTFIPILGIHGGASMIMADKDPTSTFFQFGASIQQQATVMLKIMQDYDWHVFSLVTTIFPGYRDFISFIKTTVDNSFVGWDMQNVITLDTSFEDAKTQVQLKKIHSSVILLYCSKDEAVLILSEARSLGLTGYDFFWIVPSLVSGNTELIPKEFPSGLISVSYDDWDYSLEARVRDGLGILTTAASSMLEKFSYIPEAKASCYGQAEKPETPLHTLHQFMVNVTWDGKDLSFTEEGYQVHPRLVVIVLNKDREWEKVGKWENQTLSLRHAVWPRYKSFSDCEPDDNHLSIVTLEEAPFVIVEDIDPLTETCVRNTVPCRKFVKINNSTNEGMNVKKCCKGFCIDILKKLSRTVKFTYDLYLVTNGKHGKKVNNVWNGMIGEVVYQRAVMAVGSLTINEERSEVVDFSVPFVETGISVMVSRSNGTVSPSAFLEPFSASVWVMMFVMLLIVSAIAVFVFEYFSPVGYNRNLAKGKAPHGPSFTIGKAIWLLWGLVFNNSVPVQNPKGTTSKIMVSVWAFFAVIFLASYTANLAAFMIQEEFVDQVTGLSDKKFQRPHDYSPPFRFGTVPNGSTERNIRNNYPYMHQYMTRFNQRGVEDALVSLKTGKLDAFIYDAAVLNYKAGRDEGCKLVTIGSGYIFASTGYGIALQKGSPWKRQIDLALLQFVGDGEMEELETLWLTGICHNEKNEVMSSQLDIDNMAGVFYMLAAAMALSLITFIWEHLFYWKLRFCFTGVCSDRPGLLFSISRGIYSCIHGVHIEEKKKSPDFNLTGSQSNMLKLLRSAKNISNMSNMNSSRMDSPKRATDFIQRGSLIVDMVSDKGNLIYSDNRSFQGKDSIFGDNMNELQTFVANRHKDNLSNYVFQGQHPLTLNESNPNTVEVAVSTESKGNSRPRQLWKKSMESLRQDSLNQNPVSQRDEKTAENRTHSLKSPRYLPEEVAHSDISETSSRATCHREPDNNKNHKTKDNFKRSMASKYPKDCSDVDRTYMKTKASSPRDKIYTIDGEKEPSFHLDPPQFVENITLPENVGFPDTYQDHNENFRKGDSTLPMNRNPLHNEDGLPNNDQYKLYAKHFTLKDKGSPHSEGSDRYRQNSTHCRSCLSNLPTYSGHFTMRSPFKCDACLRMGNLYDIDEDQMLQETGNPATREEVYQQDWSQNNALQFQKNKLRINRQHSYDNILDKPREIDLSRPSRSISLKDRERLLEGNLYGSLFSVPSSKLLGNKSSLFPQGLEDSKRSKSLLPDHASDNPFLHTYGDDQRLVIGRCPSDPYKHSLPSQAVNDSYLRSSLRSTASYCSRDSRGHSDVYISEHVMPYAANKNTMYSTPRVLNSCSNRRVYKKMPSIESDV
# [1] = target: T3, lymphocyte-specific protein tyrosine kinase (LCK) (Homo sapiens, UniProt P06239); test: Off-target screening (Eurofins Cerep), Lck kinase; assay type: biochemical
# T3 construct: Eurofins Cerep SA (contract screen)
# T3 sequence (P06239 whole entry): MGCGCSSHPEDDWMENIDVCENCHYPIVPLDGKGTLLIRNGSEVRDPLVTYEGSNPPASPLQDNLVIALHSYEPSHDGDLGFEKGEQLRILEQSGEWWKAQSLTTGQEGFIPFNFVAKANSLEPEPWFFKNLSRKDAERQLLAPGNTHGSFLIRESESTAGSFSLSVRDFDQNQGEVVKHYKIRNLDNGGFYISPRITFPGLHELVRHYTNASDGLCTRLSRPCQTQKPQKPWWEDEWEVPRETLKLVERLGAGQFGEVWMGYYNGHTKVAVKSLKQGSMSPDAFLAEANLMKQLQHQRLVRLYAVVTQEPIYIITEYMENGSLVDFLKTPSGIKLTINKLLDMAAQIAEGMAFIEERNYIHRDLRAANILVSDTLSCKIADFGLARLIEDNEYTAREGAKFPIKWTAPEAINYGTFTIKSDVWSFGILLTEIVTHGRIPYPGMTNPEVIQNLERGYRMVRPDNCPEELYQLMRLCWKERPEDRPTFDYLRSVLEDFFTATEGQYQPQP
# [2] = target: T4, Norepinephrine transporter (Homo sapiens, UniProt P23975); test: Off-target screening (Eurofins Cerep), norepinephrine transporter; assay type: binding
# T4 construct: Eurofins Cerep SA (contract screen)
# T4 sequence (P23975 whole entry): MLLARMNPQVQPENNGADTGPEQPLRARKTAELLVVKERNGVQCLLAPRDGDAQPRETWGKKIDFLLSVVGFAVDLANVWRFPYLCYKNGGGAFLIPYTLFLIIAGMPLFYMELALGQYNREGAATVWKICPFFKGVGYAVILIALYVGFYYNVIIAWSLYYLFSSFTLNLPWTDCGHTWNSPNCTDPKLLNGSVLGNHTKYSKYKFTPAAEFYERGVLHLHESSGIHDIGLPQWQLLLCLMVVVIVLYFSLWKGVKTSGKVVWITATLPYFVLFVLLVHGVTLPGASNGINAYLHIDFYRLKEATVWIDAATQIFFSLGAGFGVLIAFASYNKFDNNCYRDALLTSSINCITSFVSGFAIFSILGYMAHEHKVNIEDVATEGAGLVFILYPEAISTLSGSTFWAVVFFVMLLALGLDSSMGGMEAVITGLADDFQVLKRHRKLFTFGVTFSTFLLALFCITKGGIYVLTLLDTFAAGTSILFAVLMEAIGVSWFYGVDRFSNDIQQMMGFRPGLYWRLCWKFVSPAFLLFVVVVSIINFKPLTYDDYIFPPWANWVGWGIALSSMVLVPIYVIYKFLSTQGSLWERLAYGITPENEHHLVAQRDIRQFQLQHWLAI
# cyclooxygenase-2 (COX-2) = target: T5, cyclooxygenase-2 (COX-2) (Homo sapiens, UniProt P35354); test: Off-target screening (Eurofins Cerep), COX2; assay type: biochemical
# T5 construct: Eurofins Cerep SA (contract screen)
# Adrenergic α2A = target: T6, Adrenergic α2A (Homo sapiens, UniProt P08913); test: Off-target screening (Eurofins Cerep), α2A; assay type: binding
# T6 construct: Eurofins Cerep SA (contract screening)
# T6 sequence (P08913 whole entry): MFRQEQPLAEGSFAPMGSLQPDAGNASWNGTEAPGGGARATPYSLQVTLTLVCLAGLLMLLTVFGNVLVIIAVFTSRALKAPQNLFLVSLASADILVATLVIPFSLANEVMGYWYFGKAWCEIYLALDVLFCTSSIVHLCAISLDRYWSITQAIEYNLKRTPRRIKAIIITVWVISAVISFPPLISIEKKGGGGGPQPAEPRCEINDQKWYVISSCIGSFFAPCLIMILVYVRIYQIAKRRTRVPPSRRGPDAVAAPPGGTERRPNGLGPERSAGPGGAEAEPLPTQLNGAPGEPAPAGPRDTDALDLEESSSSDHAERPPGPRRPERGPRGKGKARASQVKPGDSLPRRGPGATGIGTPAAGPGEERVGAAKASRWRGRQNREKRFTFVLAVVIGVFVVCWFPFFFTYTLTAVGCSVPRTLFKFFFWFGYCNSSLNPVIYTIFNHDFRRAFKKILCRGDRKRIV
# Adrenergic β2 = target: T7, Adrenergic β2 (Homo sapiens, UniProt P07550); test: Off-target screening (Eurofins Cerep), β2; assay type: binding
# T7 construct: Eurofins Cerep SA (contract screening)
# T7 sequence (P07550 whole entry): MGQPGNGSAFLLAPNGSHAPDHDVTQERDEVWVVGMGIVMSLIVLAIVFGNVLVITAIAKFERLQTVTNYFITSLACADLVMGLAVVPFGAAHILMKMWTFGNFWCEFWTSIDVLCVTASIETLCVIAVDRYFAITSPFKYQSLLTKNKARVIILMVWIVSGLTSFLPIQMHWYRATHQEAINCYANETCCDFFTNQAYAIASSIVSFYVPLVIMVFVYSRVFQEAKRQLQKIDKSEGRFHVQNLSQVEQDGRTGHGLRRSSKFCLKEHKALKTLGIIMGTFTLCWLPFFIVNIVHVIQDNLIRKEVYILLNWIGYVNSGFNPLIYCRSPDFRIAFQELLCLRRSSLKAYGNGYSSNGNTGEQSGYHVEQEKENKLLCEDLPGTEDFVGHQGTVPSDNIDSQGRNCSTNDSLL
# BxPC-3 pancreatic tumors = test: NIR fluorescence imaging, BxPC-3 pancreatic tumors; assay type: in vivo, mice; settings: all three dose groups (1.0, 10, 30 nmol), FLARE and Pearl, skin as background
# Protocol: (§1) To induce subcutaneous tumors, colorectal cancer cells (HT-29) were injected at 4 sites on the back (500,000 cells per spot). Subsequently, these colorectal tumor cells were transplanted on the colon of other mice, as described by Tseng et al.. Approximately 500,000 pancreatic tumor cells (BxPC-3) were injected into the pancreas, as previously described by Kim et al.. Approximately 40,000 oral tumor cells (OSC-19) were injected in the tongue, as previously described by van Driel et al.. Approximately 500,000 breast tumor cells (MCF-7) were injected in both sides of the mammary fat pad to induce breast cancer tumors.
# All animals were imaged using a Pearl® imager (LI-COR, Lincoln, NE) and an original FLARE® prototype. Animals with HT-29 tumors were imaged at 4 and 24 h post injection; animals with BxPC-3 and OSC-19 tumors at 4 h only. Animals with MCF-7 tumors were imaged at 0.5, 1, 2, 4, 6, 8, 24 and 48 h post injection. […] TBRs were calculated by dividing the tumor signal by the background signal. […]
# Mice were administered with 0.25 (HT-29 model only), 1.0, 10, or 30 nmol cRGD-ZW800-1 to evaluate tumor signals, biodistribution, and to calculate TBRs (n = 3 per dose group). At 4 h (BxPC-3 model) and 24 h (HT-29 model) after injection, mice were fully dissected and fluorescence intensity of their organs was measured.
# Adrenergic α1A = target: T8, Adrenergic α1A (Homo sapiens, UniProt P35348); test: Off-target screening (Eurofins Cerep), α1A; assay type: binding
# T8 construct: Eurofins Cerep SA (contract screening)
# T8 sequence (P35348 1-466): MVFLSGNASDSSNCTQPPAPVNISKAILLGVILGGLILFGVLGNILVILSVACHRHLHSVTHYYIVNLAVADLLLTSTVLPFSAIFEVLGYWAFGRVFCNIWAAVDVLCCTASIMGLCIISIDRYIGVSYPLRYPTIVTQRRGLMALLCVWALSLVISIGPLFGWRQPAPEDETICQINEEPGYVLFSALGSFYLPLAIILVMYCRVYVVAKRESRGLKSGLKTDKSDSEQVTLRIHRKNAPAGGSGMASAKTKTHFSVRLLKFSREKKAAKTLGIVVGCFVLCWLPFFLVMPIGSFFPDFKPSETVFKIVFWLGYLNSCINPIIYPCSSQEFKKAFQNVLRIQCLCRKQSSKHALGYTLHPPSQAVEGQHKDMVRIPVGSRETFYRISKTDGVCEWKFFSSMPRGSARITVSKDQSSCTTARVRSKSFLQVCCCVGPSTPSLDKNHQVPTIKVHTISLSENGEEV
# Excerpt: Off-target interactions are binding of tracers to other components on the cell surface than the actual target site. These non-specific interactions are often of low affinity and easily missed, but can have significant effects. We outsourced the screening for in vitro for off-target interactions of cRGD-ZW800-1 to Eurofins Cerep SA, Le bois l’Evêque, France. They assessed the percentage of inhibition of a reference compound in 44 selected targets, including G protein-coupled receptors (GPCRs), transporters, ion channels, nuclear receptors, kinases and other non-kinase enzymes. These targets were recommended by four major pharmaceutical companies. The complete list is included in Supplementary Table 1 of the Supplementary Data. Each assay was performed twice using 10 μM cRGD-ZW800-1 and a reference compound. Inhibition higher than 50% was considered to represent a significant effect of cRGD-ZW800-1. Results showing between 20% and 50% were considered weak to moderate effects, while lower than 20% was not considered significant and mostly attributable to variability of the signal around the control level.
# Serotonin 5-HT2A = target: T9, Serotonin 5-HT2A (Homo sapiens, UniProt P28223); test: Off-target screening (Eurofins Cerep), 5-HT2A; assay type: binding
# T9 construct: Eurofins Cerep SA (contract screening)
# T9 sequence (P28223 whole entry): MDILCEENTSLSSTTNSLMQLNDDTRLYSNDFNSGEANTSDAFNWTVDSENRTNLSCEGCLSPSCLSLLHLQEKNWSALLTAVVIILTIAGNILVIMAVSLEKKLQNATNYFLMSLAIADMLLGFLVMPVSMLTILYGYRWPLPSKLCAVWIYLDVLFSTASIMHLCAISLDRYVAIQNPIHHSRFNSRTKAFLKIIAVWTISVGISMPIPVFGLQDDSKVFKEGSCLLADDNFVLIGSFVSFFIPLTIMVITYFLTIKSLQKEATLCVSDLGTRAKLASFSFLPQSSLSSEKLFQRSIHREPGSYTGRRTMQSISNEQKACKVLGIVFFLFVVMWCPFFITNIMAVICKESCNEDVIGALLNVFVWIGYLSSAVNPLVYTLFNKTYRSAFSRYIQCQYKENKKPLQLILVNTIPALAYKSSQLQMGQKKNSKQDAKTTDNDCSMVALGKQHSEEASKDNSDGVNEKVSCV
# MCF-7 breast tumors = test: NIR fluorescence imaging, MCF-7 breast tumors; assay type: in vivo, mice; settings: 10 nmol, Pearl
# Protocol: as §1
# All animals were imaged using a Pearl® imager (LI-COR, Lincoln, NE) and an original FLARE® prototype. Animals with HT-29 tumors were imaged at 4 and 24 h post injection; animals with BxPC-3 and OSC-19 tumors at 4 h only. Animals with MCF-7 tumors were imaged at 0.5, 1, 2, 4, 6, 8, 24 and 48 h post injection. The specific and control images were normalized and regions of interest (ROIs) were selected using associated software. TBRs were calculated by dividing the tumor signal by the background signal. Based on our experience a TBR ≥ 2 is sufficient to discriminate between tumor and surrounding tissue.
# Mice bearing orthotopic OSC-19 tumors (n = 2) were administrated with 10 nmol cRGD-ZW800-1 and imaged at 4 h. Mice bearing orthotopic MCF-7 tumors (n = 2) were injected with 10 nmol cRGD-ZW800-1 and imaged at 0.5, 1, 2, 4, 6, 8, 24, and 48 h post injection. One mouse with 2 MCF-7 tumors was administered with 10 nmol cRGD-ZW800-1 and imaged at 4 h post injection while its skin was partially removed. In vivo TBRs were calculated by dividing the mean fluorescence signals of tumors by the mean of surrounding tissue. Ex vivo organ-to-tumor ratios were calculated by dividing the fluorescence intensity of the organ by that of the tumor.
# [3] = 10 μM cRGD-ZW800-1, format H, Ag, performed twice, read-out: % Inhibition of Control Specific Binding
# [4] = 10 μM, mean of 2, read-out: % of Control Specific Binding Mean
# [5] = read-out: % Inhibition of Control Specific Binding
# [6] = read-out: % of Control Specific Binding Mean
# [7] = 10 μM cRGD-ZW800-1, format H, performed twice, read-out: % Inhibition of Control Specific Binding
# [8] = 10 μM cRGD-ZW800-1, format H, An, performed twice, read-out: % Inhibition of Control Specific Binding
# T1 sequence (P37288 whole entry): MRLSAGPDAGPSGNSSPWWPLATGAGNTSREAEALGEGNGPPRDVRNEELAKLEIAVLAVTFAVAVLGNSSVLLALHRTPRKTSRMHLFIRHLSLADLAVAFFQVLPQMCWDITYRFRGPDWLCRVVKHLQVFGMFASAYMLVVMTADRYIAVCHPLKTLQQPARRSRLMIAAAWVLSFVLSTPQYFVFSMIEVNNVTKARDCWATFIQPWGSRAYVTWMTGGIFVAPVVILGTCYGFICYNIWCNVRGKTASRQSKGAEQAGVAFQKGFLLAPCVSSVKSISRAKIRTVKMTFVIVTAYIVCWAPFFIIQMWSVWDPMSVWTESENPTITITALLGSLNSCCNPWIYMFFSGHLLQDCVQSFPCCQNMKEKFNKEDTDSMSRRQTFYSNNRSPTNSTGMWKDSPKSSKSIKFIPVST
smiles,measurement,setting,value
CC1(C)C(/C=C/C2=C(Oc3ccc(CCC(=O)NCCCC[C@@H]4NC(=O)[C@@H](Cc5ccc(O)cc5)NC(=O)[C@H](CC(=O)O)NC(=O)CNC(=O)[C@H](CCCNC(=N)N)NC4=O)cc3)C(=C/C=C3/N(CCC[N+](C)(C)C)c4ccc(S(=O)(=O)O)cc4C3(C)C)/CCC2)=[N+](CCC[N+](C)(C)C)c2ccc(S(=O)(=O)O)cc21 [cRGD-ZW800-1],inhibition at 10 µM,Vasopressin V1a; [3],4%
same,remaining activity at 10 µM,Vasopressin V1a; [4],96%
same,inhibition at 10 µM,Adrenergic β1; [5],18%
same,remaining activity at 10 µM,Adrenergic β1; [6],82.3%
same,inhibition at 10 µM,Glutamate channels NMDA; [5],10%
same,remaining activity at 10 µM,Glutamate channels NMDA; [6],90.4%
same,inhibition at 10 µM,[1]; [7],28%
same,remaining activity at 10 µM,[1]; [4],72.3%
same,inhibition at 10 µM,[2]; [8],3%
same,remaining activity at 10 µM,[2]; [4],97.4%
same,inhibition at 10 µM,cyclooxygenase-2 (COX-2); [7],62%
same,remaining activity at 10 µM,cyclooxygenase-2 (COX-2); [4],38%
same,inhibition at 10 µM,Adrenergic α2A; [8],-4%
same,remaining activity at 10 µM,Adrenergic α2A; [4],104%
same,inhibition at 10 µM,Adrenergic β2; [3],5%
same,remaining activity at 10 µM,Adrenergic β2; [4],95%
same,TBRs at 4 h post injection,BxPC-3 pancreatic tumors,> 2
same,inhibition at 10 µM,Adrenergic α1A; [8],9%
same,remaining activity at 10 µM,Adrenergic α1A; [4],90.6%
same,inhibition at 10 µM,Serotonin 5-HT2A; [3],-9%
same,remaining activity at 10 µM,Serotonin 5-HT2A; [4],109%
same,decrease of fluorescence intensity of tumors at 4 h compared to 0.5 h post injection,MCF-7 breast tumors,61% ± 8%
same,decrease of fluorescence intensity of tumors at 24 h compared to 0.5 h post injection,MCF-7 breast tumors,77% ± 4%
same,"TBR at 4 h post injection, with skin",MCF-7 breast tumors; single mouse with 2 tumors,1.5 ± 0.1
same,"TBR at 4 h post injection, skin removed","MCF-7 breast tumors; single mouse with 2 tumors, p = 0.02",3.0 ± 0.3
